Laboratory results: ChEMBL document CHEMBL1201862, “PubChem BioAssay data set” (2004)
Calls of active or inactive are those of the source.

Key:
[1] = molecular target: T1, Caspase-6 (Homo sapiens, UniProt P55212); experiment: human caspase-6 inhibitors, dose response, biochemical, VEID-R110 fluorescence, cherry-pick (AID 720632)
T1 sequence (P55212 whole entry): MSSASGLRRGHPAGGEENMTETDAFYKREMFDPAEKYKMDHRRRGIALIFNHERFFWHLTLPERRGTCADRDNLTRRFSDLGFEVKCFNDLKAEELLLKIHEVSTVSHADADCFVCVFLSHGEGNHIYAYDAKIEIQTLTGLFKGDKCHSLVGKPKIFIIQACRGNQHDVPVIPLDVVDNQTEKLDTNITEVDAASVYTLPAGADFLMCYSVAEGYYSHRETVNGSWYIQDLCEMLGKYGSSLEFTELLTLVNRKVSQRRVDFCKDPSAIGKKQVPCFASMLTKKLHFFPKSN

[2] = molecular target: T2, Aminopeptidase N (Plasmodium falciparum FcB1/Columbia, UniProt O96935); experiment: P. falciparum M1AAP inhibitors, biochemical, fluorogenic H-Leu-NHMec substrate, 1536-well (AID 1445); design: species or system Plasmodium falciparum 3D7, 3D7
T2 sequence (O96935 whole entry): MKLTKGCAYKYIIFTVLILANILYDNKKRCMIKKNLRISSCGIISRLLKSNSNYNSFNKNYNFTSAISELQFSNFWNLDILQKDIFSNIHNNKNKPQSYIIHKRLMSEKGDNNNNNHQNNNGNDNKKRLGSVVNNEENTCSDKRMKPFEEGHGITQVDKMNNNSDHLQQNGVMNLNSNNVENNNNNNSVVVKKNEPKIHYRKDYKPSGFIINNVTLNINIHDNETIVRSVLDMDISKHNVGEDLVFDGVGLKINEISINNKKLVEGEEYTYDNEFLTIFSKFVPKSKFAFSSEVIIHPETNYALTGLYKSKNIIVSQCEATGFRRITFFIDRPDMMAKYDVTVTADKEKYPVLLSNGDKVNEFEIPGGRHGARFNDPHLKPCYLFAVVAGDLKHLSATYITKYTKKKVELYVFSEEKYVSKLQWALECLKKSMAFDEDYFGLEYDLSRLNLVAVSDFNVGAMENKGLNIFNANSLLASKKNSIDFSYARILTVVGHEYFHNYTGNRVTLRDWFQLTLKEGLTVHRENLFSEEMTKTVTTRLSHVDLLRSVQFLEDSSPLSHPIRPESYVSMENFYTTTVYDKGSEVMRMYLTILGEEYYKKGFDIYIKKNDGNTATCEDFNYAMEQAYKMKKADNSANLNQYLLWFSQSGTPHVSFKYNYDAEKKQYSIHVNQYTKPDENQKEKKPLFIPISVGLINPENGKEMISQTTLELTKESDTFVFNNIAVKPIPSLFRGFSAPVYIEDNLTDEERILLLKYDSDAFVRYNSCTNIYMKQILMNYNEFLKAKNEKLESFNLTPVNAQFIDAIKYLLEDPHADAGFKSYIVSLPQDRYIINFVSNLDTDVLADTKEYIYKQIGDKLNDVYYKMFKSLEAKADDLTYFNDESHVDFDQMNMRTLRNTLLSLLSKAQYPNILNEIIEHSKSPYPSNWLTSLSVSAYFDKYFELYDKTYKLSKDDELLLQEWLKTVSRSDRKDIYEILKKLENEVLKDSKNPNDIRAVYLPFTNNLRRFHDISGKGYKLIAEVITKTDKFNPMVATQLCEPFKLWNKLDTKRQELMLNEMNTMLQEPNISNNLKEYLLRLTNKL

[3] = NIH:OVCAR-3 ovarian cancer cell cytotoxicity, dose response, PAX8 inhibitor project, plate reader, dry powder samples (AID 743044); format: functional, cell-based
[4] = IGROV1 ovarian cancer cell cytotoxicity, dose response, PAX8 inhibitor project, plate reader, dry powder samples (AID 743043); format: functional, cell-based; conditions: IGROV-1
[5] = molecular target: Paired box protein Pax-8 (Homo sapiens, UniProt Q06710); experiment: inhibitors of PAX8-driven TPO luciferase reporter, dose response, RMG-I cells, cherry-pick (AID 687027); format: functional, cell-based;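 note: luciferase reporter driven by Pax8 target thyroperoxidase promoter measured by SteadyGlo luminescence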
[6] = cytotoxicity in OVCAR8 ovarian cancer cells, dose response, PAX8 project, cell-based, plate reader, dry powder samples (AID 743197); format: functional; conditions: OVCAR-8
[7] = inhibitors of Vif binding to APOBEC3G peptide, primary screen, biochemical, TR-FRET, GST-Vif 1-94, biotin-A3G peptide, dose response retest (AID 1117319); format: functional;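 note: TR-FRET signal of purified GST-Vif binding a biotinylated A3G peptide; inhibitors lower the FRET signal by blocking Vif and A3G binding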
[8] = P. falciparum Dd2 growth inhibitors, dose response, SYBR Green, dry powder samples (AID 1159566); format: functional, cell-based;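 note: potency for growth inhibition with lower SYBR green DNA signal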
[9] = P. falciparum ATP4 D1247Y mutant growth inhibitors, dose response, NITD609-resistant line, SYBR Green, dry powder (AID 1159571); format: functional, cell-based;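 note: parasites synchronized at ring stage by sorbitol before testing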
[10] = P. falciparum 3D7-ScDHODH growth inhibitors, dose response, SYBR Green, dry powder samples (AID 1159570); format: functional, cell-based;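 note: parasite growth measured after 72 hours of compound exposure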
[11] = HepG2 cell cytotoxicity, dose response, cytotoxicity control, plate reader, dry powder samples (AID 1159569); format: functional, cell-based;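 note: inhibitor potency with signal falling toward the positive control level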
[12] = HepG2 cell cytotoxicity, dose response, cytotoxicity control, cherry-picked samples (AID 1159577); format: functional, cell-based
[13] = P. falciparum Dd2 growth inhibitors, dose response, SYBR Green, cherry-picked samples (AID 1159567); format: functional, cell-based
[14] = cells
[15] = inhibitors of intracellular T. cruzi replication, confirmation, NIH3T3 host cells, beta-gal luminescence (AID 2044); format: functional, cell-based;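 note: intracellular parasites grown in NIH/3T3 mouse fibroblasts as host cells; luminescent beta-galactosidase reporter signal from transgenic T. cruzi replicating inside host cells; inhibitors lower the luminescence signal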
[16] = cytotoxicity toward NIH3T3 fibroblasts, dose response, counter-screen, cell-based, ATP luminescence, mouse fibroblasts (AID 2010); format: functional;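 note: cells exposed to compound for about 90 hours before reading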
[17] = molecular target: T3, Carboxy-terminal domain RNA polymerase II polypeptide A small phosphatase 1 (Homo sapiens, UniProt Q9GZU7); experiment: inhibitors of CTDSP1, concentration-response testing, biochemical assay, absorbance-based, actives from ultra-high-throughput screening (AID 540297); format: functional
T3 sequence (Q9GZU7 whole entry): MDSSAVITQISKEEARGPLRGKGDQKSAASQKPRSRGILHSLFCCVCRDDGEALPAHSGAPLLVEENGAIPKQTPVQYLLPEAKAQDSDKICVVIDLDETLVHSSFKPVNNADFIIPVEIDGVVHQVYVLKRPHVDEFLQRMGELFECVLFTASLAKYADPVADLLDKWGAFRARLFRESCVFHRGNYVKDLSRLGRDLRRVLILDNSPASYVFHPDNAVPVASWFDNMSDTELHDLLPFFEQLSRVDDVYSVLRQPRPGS

[18] = test system: BJ; experiment: cytotoxicity toward BJ-TERT fibroblasts, dose response, cell-based, RAS-independent, luminescence (AID 1933); format: functional; conditions: Homo sapiens
[19] = cytotoxicity toward DRD oncogenic fibroblasts, dose response, cell-based, non-viral oncogenic, luminescence (AID 1934); format: functional; conditions: Homo sapiens
[20] = molecular target: FAD-linked sulfhydryl oxidase ALR (Homo sapiens, UniProt P55789); experiment: inhibitors of human ALR sulfhydryl oxidase, dose response, biochemical, H2O2 detection, luminescence, cherry-pick (AID 493248)
[21] = C. albicans growth with fluconazole, confirmation, fluorescence, retest (AID 2467); format: functional, cell-based
[22] = test system: BJ; experiment: cytotoxicity toward BJ-TERT-LT-ST fibroblasts, dose response, cell-based, RAS-independent, luminescence (AID 1935); format: functional; conditions: Homo sapiens;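 note: BJ fibroblasts immortalized with TERT plus LT and ST oncogenes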
[23] = test system: BJ; experiment: cells; format: functional, cell-based; conditions: Homo sapiens
[24] = NIH-3T3 fibroblast cytotoxicity, dose response, cytotoxicity control, cell-based, fluorescence, Alamar Blue, secondary assay (AID 2327); format: functional;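 note: NIH-3T3 mouse fibroblasts cultured with fluconazole at 8 µg/mL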
[25] = molecular target: T4, Rac GTPase-activating protein 1 (Homo sapiens, UniProt Q9H0H5); experiment: MgcRacGAP GTPase-activating activity inhibitors, confirmation, biochemical, ADP Hunter fluorescence, primary and confirmatory (AID 624330); format: functional
T4 sequence (Q9H0H5 whole entry): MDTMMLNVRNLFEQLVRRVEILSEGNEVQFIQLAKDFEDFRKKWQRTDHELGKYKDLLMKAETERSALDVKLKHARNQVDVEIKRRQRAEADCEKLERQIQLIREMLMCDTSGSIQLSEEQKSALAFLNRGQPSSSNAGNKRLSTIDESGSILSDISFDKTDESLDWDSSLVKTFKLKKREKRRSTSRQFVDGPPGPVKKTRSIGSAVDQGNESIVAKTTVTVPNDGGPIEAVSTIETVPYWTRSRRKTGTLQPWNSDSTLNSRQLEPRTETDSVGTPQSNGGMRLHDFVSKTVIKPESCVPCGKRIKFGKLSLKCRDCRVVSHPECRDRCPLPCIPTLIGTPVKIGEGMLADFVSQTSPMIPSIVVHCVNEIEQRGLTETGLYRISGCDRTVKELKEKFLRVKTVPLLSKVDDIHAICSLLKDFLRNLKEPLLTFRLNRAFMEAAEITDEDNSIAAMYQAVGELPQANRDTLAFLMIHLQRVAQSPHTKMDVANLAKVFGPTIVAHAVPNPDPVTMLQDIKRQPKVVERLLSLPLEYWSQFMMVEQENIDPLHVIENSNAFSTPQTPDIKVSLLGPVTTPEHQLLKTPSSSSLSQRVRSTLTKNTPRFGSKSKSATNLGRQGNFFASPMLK

[26] = HeLa cell cytotoxicity, dose response, cytotoxicity control for MgcRacGAP inhibitor project (AID 624300); format: functional
[27] = molecular target: Large T antigen (Simian virus 40, UniProt P03070); format: functional, Betapolyomavirus macacae;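 note: Confirmatory-stage PubChem screen for compounds that inhibit SV40 T antigen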
[28] = molecular target: T5, Estrogen receptor beta (Homo sapiens, UniProt Q92731); experiment: ERβ–SRC-3 coactivator interaction inhibitors, confirmation, orthogonal assay, biochemical, ELISA, streptavidin-HRP readout (AID 1060)
[29] = molecular target: T5, Estrogen receptor beta
[30] = molecular target: T6, Estrogen receptor (Homo sapiens, UniProt P03372);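 note: potency for inhibiting coactivator peptide recruitment to the receptor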
T6 sequence (P03372 whole entry): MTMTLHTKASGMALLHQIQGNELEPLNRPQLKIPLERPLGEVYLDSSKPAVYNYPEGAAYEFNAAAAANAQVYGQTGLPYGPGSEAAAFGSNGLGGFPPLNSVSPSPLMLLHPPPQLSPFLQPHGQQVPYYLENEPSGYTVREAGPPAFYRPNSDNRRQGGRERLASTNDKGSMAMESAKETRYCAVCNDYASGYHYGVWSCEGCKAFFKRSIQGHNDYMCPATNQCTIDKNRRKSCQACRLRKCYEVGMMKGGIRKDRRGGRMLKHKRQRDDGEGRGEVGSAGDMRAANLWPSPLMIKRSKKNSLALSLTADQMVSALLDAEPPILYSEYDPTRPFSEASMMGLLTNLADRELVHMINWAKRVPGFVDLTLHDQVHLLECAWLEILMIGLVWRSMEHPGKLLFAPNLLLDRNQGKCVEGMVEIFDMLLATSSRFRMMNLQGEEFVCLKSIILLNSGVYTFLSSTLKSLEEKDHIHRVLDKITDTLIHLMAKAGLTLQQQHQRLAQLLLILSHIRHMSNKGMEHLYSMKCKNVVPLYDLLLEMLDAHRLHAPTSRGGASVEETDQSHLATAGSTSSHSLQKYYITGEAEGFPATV

T5 sequence (Q92731 whole entry): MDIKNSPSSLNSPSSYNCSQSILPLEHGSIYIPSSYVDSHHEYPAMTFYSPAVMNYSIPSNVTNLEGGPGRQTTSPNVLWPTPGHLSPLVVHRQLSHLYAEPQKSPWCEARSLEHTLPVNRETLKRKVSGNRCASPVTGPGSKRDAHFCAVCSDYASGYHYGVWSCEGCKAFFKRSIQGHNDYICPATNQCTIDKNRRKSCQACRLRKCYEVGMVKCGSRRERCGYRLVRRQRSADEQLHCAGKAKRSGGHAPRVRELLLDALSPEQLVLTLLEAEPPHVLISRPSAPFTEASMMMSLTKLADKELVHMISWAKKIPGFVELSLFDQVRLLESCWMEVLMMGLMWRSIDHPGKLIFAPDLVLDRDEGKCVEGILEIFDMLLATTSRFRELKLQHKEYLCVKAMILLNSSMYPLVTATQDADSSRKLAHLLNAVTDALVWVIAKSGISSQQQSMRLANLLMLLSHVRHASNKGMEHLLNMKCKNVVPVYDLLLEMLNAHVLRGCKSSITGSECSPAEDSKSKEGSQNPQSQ
FAD-linked sulfhydryl oxidase ALR, sequence (P55789 whole entry): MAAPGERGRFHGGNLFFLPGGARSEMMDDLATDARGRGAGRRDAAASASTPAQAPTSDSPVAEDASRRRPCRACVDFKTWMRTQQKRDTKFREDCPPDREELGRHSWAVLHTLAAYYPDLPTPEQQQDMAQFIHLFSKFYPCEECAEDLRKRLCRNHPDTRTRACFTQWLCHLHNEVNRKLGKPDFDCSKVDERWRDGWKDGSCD
Large T antigen, sequence (P03070 whole entry): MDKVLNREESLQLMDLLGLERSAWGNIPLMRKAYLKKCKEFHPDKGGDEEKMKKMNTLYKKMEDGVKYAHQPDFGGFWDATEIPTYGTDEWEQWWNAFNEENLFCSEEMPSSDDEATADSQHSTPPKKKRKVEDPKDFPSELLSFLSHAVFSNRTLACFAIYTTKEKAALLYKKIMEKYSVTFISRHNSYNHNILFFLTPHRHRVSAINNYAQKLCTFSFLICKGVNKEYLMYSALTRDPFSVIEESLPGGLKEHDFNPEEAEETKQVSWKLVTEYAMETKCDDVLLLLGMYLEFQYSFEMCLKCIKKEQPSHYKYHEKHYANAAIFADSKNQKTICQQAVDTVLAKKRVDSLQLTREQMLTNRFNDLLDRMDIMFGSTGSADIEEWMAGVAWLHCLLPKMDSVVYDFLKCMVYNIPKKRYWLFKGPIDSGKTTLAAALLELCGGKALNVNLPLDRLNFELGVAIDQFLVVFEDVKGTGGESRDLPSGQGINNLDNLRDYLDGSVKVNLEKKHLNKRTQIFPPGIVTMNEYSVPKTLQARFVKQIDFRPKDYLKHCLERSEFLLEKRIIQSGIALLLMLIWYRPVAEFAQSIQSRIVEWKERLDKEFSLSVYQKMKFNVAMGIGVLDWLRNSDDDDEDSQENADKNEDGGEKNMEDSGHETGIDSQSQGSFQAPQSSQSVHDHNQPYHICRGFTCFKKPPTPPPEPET
Paired box protein Pax-8, sequence (Q06710 whole entry): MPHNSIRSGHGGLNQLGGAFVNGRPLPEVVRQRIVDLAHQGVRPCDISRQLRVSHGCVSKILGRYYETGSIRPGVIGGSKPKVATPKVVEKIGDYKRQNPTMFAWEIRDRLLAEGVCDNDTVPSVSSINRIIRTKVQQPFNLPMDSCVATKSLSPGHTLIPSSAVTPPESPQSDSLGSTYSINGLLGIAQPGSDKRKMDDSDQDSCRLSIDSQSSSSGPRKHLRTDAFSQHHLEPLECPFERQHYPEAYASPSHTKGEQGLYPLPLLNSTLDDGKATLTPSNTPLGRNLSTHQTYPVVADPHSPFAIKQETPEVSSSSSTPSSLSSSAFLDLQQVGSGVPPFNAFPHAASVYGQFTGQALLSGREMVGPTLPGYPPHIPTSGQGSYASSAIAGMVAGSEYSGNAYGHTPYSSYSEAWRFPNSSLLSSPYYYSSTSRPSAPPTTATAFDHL

O=C(O)CC1SC(N/N=C/c2ccc(-c3ccc(Cl)c([N+](=O)[O-])c3)o2)=NC1=O (configuration not stated)
AC50 [1]: 25.1 µM (active)
IC50 [2]: 54.1 µM (active)

COc1ccc(S(=O)(=O)N(C)C[C@@H]2OCCCC[C@H](C)Oc3ccc(NS(=O)(=O)c4ccccc4)cc3C(=O)N([C@H](C)CO)C[C@H]2C)cc1
AC50 [3]: 28.2 µM (active)
AC50 [4]: 43.2 µM (active)
AC50 [5]: 5.15 µM (active)
AC50 [6]: > 70 µM (inactive)

CCOc1ccc(C2c3c(oc4ccccc4c3=O)C(=O)N2CCCN2CCOCC2)cc1 (configuration not stated)
IC50 [7]: > 100 µM (active)

CCc1cccc(NC(=O)CN(C)S(=O)(=O)c2cccc3nsnc23)c1
IC50 [7]: > 100 µM (active)

CC(=O)N1CCc2cc(S(=O)(=O)NCCC(=O)Nc3cccc(C)c3C)ccc21
IC50 [7]: > 100 µM (active)

OC[C@H]1Nc2ccc(C#Cc3ccc(F)cc3)cc2[C@H]2[C@@H]1CCN2Cc1ccc2c(c1)OCO2
AC50 [8]: 3.38 µM (active)
AC50 [9]: 3.18 µM (active)
AC50 [10]: 4 µM (active)
AC50 [11]: 20.9 µM (active)
AC50 [12]: 26.2 µM (active)
AC50 [13]: 2.75 µM (active)

O=C(C1=C[C@H](C2CCCCC2)C[C@H](OCCCCO)O1)N1CCN(Cc2ccc3c(c2)OCO3)CC1
EC50 [14]: 0.058 µM (active)
EC50 [15]: < 0.1 µM (active)
EC50 [16]: > 60 µM (not active)

O=C(Nc1cccnc1Cl)c1ccc(=O)oc1
AC50 [1]: 22 µM (active)
IC50 [17]: 17.8 µM (active)

CCN(CC)c1ccc(/C=C/c2cccc[n+]2C)c(OC)c1
EC50 [18]: 7.77 µM (active)
EC50 [19]: 15.2 µM (active)
EC50 [14]: 0.023 µM (active)
AC50 [20]: 0.452 µM (active)
EC50 [21]: 0.34 µM (active)
EC50 [22]: 13.7 µM (inconclusive)
EC50 [15]: < 0.1 µM (active)
EC50 [23]: 17.9 µM (active)
EC50 [16]: > 60 µM (not active)
EC50 [24]: > 150 µM (inactive)

Cc1ccc(C2=NOC(=O)/C2=C\c2ccc(C)o2)cc1
IC50 [25]: 44.8 µM (active)
CC50 [26]: 100 µM (active)
IC50 [27]: 78.1 µM (active)

Cn1cnnc1SCC(=O)Nc1ncc([N+](=O)[O-])s1
AC50 [1]: 3.04 µM (active)

O=C(Cn1c(=O)n(Cc2ccco2)c(=O)c2c3c(sc21)CCCCC3)Nc1ccccc1
IC50 [28]: 24.9 µM (not active)
IC50 [29]: 6.57 µM (active)
IC50 [17]: 4.93 µM (active)
IC50 [30]: 7.24 µM (active)

COc1ccc2c3c(n(C)c2c1)[C@H](CO)N(CC1CCOCC1)CC31CCN(Cc2nccs2)CC1
AC50 [8]: 1.1 µM (active)
AC50 [9]: 1.32 µM (active)
AC50 [10]: 0.845 µM (active)
AC50 [11]: > 100 µM (inactive)
AC50 [13]: 1.46 µM (active)

Cc1csc2ncc(C(=O)N3c4ccccc4CC3C)c(=O)n12 (configuration not stated)
IC50 [29]: > 50 µM (not active)

O=C1C2CCCN2C(c2ccccc2)N1c1nccs1 (configuration not stated)
IC50 [7]: > 100 µM (active)

CCOc1[nH]c(/N=C/c2ccco2)c(C#N)c1C#N
IC50 [28]: 18.2 µM (not active)
IC50 [29]: 18.5 µM (active)
